Ends that are not written are not given here.

The values that follow come from patent US8772237B2, “Compositions and methods for counteracting effects of reactive oxygen species and free radicals” (Ischemix, Inc., priority 1999, dated 2014).

One assay deals with catalase (CAT) mRNA. The assay is described as follows: RT-PCR upregulation of catalase (CAT) mRNA in primary rat cortical cultures. The format is cell-based. Conditions: 100 ng/ml. An excerpt:
Peptide compounds of the invention may also upregulate mRNA for catalase (CAT). Experiments using the RT-PCR methods to detect upregulation of CAT mRNA in primary rat cortical brain cultures treated with various representative peptide compounds, i.e., CMX-9236, CMX-9963, and CMX-9967. The catalase probe duplex consisted of a sense primer having the sequence […] (SEQ ID NO:31) and antisense primer having the sequence […] (SEQ ID NO:32) flanking a 95 bp region of the CAT DNA.
Primary rat brain cortical cell cultures were incubated with 100 ng/ml of the peptide compound CMX-9236 for 0, 0.5, 1, 2, 3, 6, 12, 24, and 48 hours. […] The upregulation of CAT mRNA was maximal at 3 hours after the addition of the peptide compound, and it decreased back to control levels at 48 hours. GAPDH was the internal standard in these experiments. […] A 13-fold increase in CAT mRNA levels was observed (over control) of CAT mRNA occurred when primary rat brain cortical cultures were incubated with 100 ng/ml of CMX-9236 for 3 hours.

The test system of assay [1] is superoxide dismutase-1 (SOD-1) mRNA. The assay is described as follows: RT-PCR upregulation of SOD-1 mRNA in rat primary cortical cell cultures. Conditions: 100 ng/ml. The assay is classed as cell-based. Here is the method: The RT-PCR method (see, for example, Innis et al., PCR Protocols: A Guide to Methods and Applications, (Academic Press, San Diego, 1990)) was used to investigate the upregulation of the specific mRNA that codes for the enzyme superoxide dismutase (SOD).
Primary cortical cultures were obtained by growing newborn rat brain cortical cells in Delbecco's modified Eagle medium supplemented with 25 μg/ml of gentamycin and 10% fetal calf serum. The cells were isolated from the E-21 cortex of rat brain, plated at a density of 1×10^5 per ml and grown to confluence within four to five days in an atmosphere containing air and 5% CO2 at 37° C. as described in Cornell-Bell et al., Science, 247: 470-473 (1990) and Cell Calcium, 12: 185-204 (1991). Cultures were grown in 20 ml flasks as a monolayer and then exposed to various concentrations of peptides for studies of the effects of peptides on upregulation of genes for SOD and CAT and on the transmigration of transcription factor AP-1 to cell nuclei.
(§1) Primary cultures of rat brain cortical cells were incubated with 100 ng/ml of peptide compound CMX-9236 for durations of 0 to 48 hours. mRNA was isolated from the cytoplasmic fraction of lysed cells according to standard methods (Angel et al., Cell 49:729-739, 1987). The RNA was incubated according to the RT-PCR protocol with two strands, 20 nucleotides long, one for the sense and one from the antisense strand. The sequences were selected to be unique for superoxide dismutase-1 (SOD-1), and to span one intron segment. […] The sequence of the two probe segments of the oligo dT segments for SOD are as follows: anti-sense strand, […] (SEQ ID NO:29), and sense strand, […] (SEQ ID NO:30). These span a sequence of 208 base pairs (bp) on the primary SOD sequence. The mixture was then treated with reverse transcriptase to obtain the cDNA according to standard PCR methods. The cDNA was then analyzed by electrophoresis and separated according to sequence lengths on a non-denaturing 5% polyacrylamide gel. The electrophoretically separated molecules were treated with ethidium bromide to stain double-stranded DNA fragments. These were visualized by ultraviolet illumination and photographed. The gels were then analyzed by a laser scanning fluorescence detector to quantitate the amount of messenger RNA for the extent of upregulation of SOD message and its time course of synthesis as a function of stimulation by CMX-9236. Similar methods of analysis were used for other peptides.

Another assay relates to SOD-1 mRNA. Put plainly: RT-PCR upregulation of SOD-1 mRNA in rat primary myocyte cultures. The format is cell-based. The settings on record: rat primary myocytes, 3-hour incubation. Here is the method:
as §1, with “These were visualized by ultraviolet illumination and photographed.” left out, “Similar methods of analysis were used for other peptides.” left out

A further assay relates to catalase (CAT) protein. The assay is described as follows: Western immunoblot of CAT protein in rat primary cortical cultures. The assay is classed as cell-based. The settings on record: Dose 67 pmol/ml, 5 hours at 37° C. Here is the method:
Tissue culture experiments were carried out using primary cultures of rat brain cortical cells as previously described above in Example 2. Primary cultures from embryonic rat brain isolated at E-21 (21 day embryos) and incubated for five hours with various doses: 1, 10, 100 ng/ml of CMX-99672. Cytoplasmic proteins were isolated and analyzed for upregulation of SOD and CAT by Western immunoblots as described above. […] The Western blot was scanned to quantify the fold-increase in SOD production in cell cultures treated with the CMX-99672 peptide compound.
Representative peptide compounds were tested at various doses and compared for their ability to upregulate expression of genes for SOD and/or CAT in rat primary cortical cultures basically as described above. Cultures were incubated with a peptide compound for 5 hours at 37° C. Cytoplasmic protein fractions were prepared as described above. Cytoplasmic proteins were separated by gel electrophoresis and analyzed by Western immunoblots using antisera to SOD and CAT, respectively (Rockland, Inc., Gilbertsville, Pa.).
In general terms: In western blotting, separated proteins are transferred to a membrane and probed.

In assay [2] the test system is middle cerebral artery (MCA) permanent occlusion stroke model. Put plainly: Permanent MCA 24-hour occlusion stroke model. The assay is classed as in vivo, Sprague-Dawley rats. Conditions: Dose 0.05 mg/hr.

“KKDGDGDFAIDAPE [CMX-9236, uncapped peptide]”: in the assay with catalase (CAT) mRNA, the “time at which CAT mRNA decreased back to control levels” value is 48 h and the “time of maximal upregulation of CAT mRNA after addition” value turned out to be 3 h. In addition, the “increase in CAT mRNA levels over control” value in the assay with catalase (CAT) mRNA (3 hours) came out at 13 fold. Moreover, the “time until SOD-1 mRNA stimulation returns to control levels” value in assay [1] was no more than 24 h. Further, the “upregulation of SOD-1 mRNA transcripts” value in assay [1] (rat primary cortical cells, 3 hours incubation) is listed as 9 fold. Further, the “upregulation of SOD mRNA” value with SOD-1 mRNA (1 ng/ml) is on record as 3 fold. Moreover, the “upregulation of SOD-1 mRNA transcripts” value with SOD-1 mRNA (10-100 ng/ml) was “about 6 fold”. This sequence displayed a CAT with catalase (CAT) protein of 652 % Control. In addition, in assay [2], the “Percent Neurological Rescue” value is on record as 35 ± 8% and the “Percent Rescue (percent decrease in infarct size vs vehicle controls)” value was 23 ± 7%.
